In patent US5166321A, “Cecropin polypetides with activity against Gram-positive and Gram-negative bacteria” (International Genetic Engineering, Inc., priority 1987, dated 1992):
Square brackets hold non-standard residues; d marks the D form. Ends that are not written are not given here. Peptide text beside a SMILES is read from it. hSer = N[C@@H](CCO)C(=O)O

Experiments:
[1] = system: E. cloacae; experiment: Agar-well halo assay of bactericidal activity; type: cell-based; conditions: overnight incubation at 25° C.
Procedure: (§1) The assay for antimicrobial activity was performed by pouring 10 ml of agar in TYE media containing about 10^7 viable cells of the test organisms. Wells, 2 mm in diameter, were punched in the agar plates. Aliquots of the modified cecropin-like polypeptides (2-12 ul) were then added to each well. The diameter of the inhibition zones, or haloes, around the wells, were measured after overnight incubation at 25° C.
(§2) The activities of various cecropin-like polypeptides were tested against both Gram-negative and Gram-positive organisms. Anti-microbial activity against the Gram-negative organisms remained unaltered for most of the Gram-negative bacteria (except, i.e., Serratia marcescens) as shown in Table 1. […] To determine a standard of halo formation, the various modified cecropin-like polypeptides were also applied to E. coli D21. Activity shown in Tables 1 and 2 is expressed as the ratio of the radius of the cleared halo for each organism versus that for E. coli D21.

[2] = system: P. aeruginosa; experiment: Agar-well halo assay of bactericidal activity; type: cell-based, Pseudomonas aeruginosa; conditions: overnight incubation at 25° C.
Procedure: as §1, §2

[3] = system: E. coli MC1061; experiment: Agar-well halo assay of bactericidal activity; type: cell-based, Escherichia coli; conditions: overnight incubation at 25° C.
Procedure: as §1, §2

[4] = system: B. subtilis; experiment: Agar-well halo assay of bactericidal activity; type: cell-based, Bacillus subtilis; conditions: for Relative activity (ratio of the radius of the cleared halo versus that for E. coli D21): B. subtilis, overnight incubation at 25° C.
Procedure: as §1, §2
(§3) The cecropin-like polypeptide modified at the carboxy terminus with ethylenediamine and naturally occurring cecropin A were tested against a variety of organisms. The relative activities of the antimicrobial agents were expressed per nanomole of polypeptide applied to each well (Table 3).

[5] = system: Streptococcus faecalis; experiment: Agar-well halo assay of bactericidal activity; type: cell-based; conditions: for Relative activity (ratio of the radius of the cleared halo versus that for E. coli D21): S. faecalis, overnight incubation at 25° C.
Procedure: as §1, §2, §3

[6] = system: Bacillus megaterium; experiment: Agar-well halo assay of bactericidal activity; type: cell-based; conditions: for Relative activity (ratio of the radius of the cleared halo versus that for E. coli D21): B. megaterium, overnight incubation at 25° C.
Procedure: as §1, §2, §3

[7] = system: Micrococcus luteus; experiment: Agar-well halo assay of bactericidal activity; type: cell-based; conditions: for Relative activity (ratio of the radius of the cleared halo versus that for E. coli D21): M. luteus, overnight incubation at 25° C.
Procedure: as §1, §2, §3

[8] = system: S. typhimurium; experiment: Agar-well halo assay of bactericidal activity; type: cell-based, Salmonella typhimurium; conditions: overnight incubation at 25° C.
Procedure: as §1, §2

[9] = system: Bacillus megaterium; conditions: from the literature; cited from earlier work
[10] = system: Escherichia coli; experiment: Agar-well halo assay, activity per nanomole; type: cell-based; conditions: per nanomole of polypeptide applied to each well
Procedure: as §1, §3

Row | Compound | Relative activity (ratio of the radius of the cleared halo versus that for E. coli D21) [1] | Relative activity (ratio of the radius of the cleared halo versus that for E. coli D21) [2] | Relative activity (ratio of the radius of the cleared halo versus that for E. coli D21) [3] | Relative activity (ratio of the radius of the cleared halo versus that for E. coli D21) [4] | Relative activity (ratio of the radius of the cleared halo versus that for E. coli D21) [5] | Relative activity (ratio of the radius of the cleared halo versus that for E. coli D21) [6] | Relative activity (ratio of the radius of the cleared halo versus that for E. coli D21) [7] | Relative activity (ratio of the radius of the cleared halo versus that for E. coli D21) [8] | Activity per Nanomole (radius of the inhibitory ring) ([4]; Bacillus subtilus, per nanomole of polypeptide applied to each well) | Sensitivity of Bacillus megaterium to the cecropin [9] | Activity per Nanomole (radius of the inhibitory ring) ([5]; Streptococcus faecalis, per nanomole of polypeptide applied to each well) | Activity per Nanomole (radius of the inhibitory ring) ([6]; Bacillus megaterium, per nanomole of polypeptide applied to each well) | Activity per Nanomole (radius of the inhibitory ring) ([7]; Micrococcus luteus, per nanomole of polypeptide applied to each well) | Activity per Nanomole (radius of the inhibitory ring) [10]
1 | CC[C@H](C)[C@H](NC(=O)CNC(=O)[C@H](CC(=O)O)NC(=O)[C@H](CCCNC(=N)N)NC(=O)[C@@H](NC(=O)[C@H](CC(N)=O)NC(=O)[C@H](CCC(N)=O)NC(=O)CNC(=O)[C@@H](NC(=O)[C@H](CCCCN)NC(=O)[C@H](CCC(=O)O)NC(=O)[C@@H](NC(=O)[C@H](CCCCN)NC(=O)[C@H](CCCCN)NC(=O)[C@H](Cc1ccccc1)NC(=O)[C@H](CC(C)C)NC(=O)[C@H](CCCCN)NC(=O)[C@H](Cc1c[nH]c2ccccc12)NC(=O)[C@@H](N)CCCCN)[C@@H](C)CC)C(C)C)[C@@H](C)CC)C(=O)N[C@H](C(=O)N[C@@H](CCCCN)C(=O)N[C@@H](C)C(=O)NCC(=O)N1CCC[C@H]1C(=O)N[C@@H](C)C(=O)N[C@H](C(=O)N[C@@H](C)C(=O)N[C@H](C(=O)N[C@H](C(=O)NCC(=O)N[C@@H](CCC(N)=O)C(=O)N[C@@H](C)C(=O)N[C@H](C(=O)N[C@@H](CCC(N)=O)C(=O)N[C@H](C(=O)N[C@@H](C)C(=O)N[C@@H](CCCCN)C(=O)N[C@@H](CCO)C(N)=O)[C@@H](C)CC)[C@@H](C)O)C(C)C)C(C)C)C(C)C)[C@@H](C)CC [CA-HS-CONH2] (H-KWKLFKKIEKVGQNIRDGIIKAGPAVAVVGQATQIAK[hSer]-NH2) | 0.86 | 0.71 | 0.81 | 0.06 ± 0.06 | 0 | 0.4 | 1.4 ± 0.2 | 1.09 |  |  |  |  |  | 
2 | CC[C@H](C)[C@H](NC(=O)CNC(=O)[C@H](CC(=O)O)NC(=O)[C@H](CCCNC(=N)N)NC(=O)[C@@H](NC(=O)[C@H](CC(N)=O)NC(=O)[C@H](CCC(N)=O)NC(=O)CNC(=O)[C@@H](NC(=O)[C@H](CCCCN)NC(=O)[C@H](CCC(=O)O)NC(=O)[C@@H](NC(=O)[C@H](CCCCN)NC(=O)[C@H](CCCCN)NC(=O)[C@H](Cc1ccccc1)NC(=O)[C@H](CC(C)C)NC(=O)[C@H](CCCCN)NC(=O)[C@H](Cc1c[nH]c2ccccc12)NC(=O)[C@@H](N)CCCCN)[C@@H](C)CC)C(C)C)[C@@H](C)CC)C(=O)N[C@H](C(=O)N[C@@H](CCCCN)C(=O)N[C@@H](C)C(=O)NCC(=O)N1CCC[C@H]1C(=O)N[C@@H](C)C(=O)N[C@H](C(=O)N[C@@H](C)C(=O)N[C@H](C(=O)N[C@H](C(=O)NCC(=O)N[C@@H](CCC(N)=O)C(=O)N[C@@H](C)C(=O)N[C@H](C(=O)N[C@@H](CCC(N)=O)C(=O)N[C@H](C(=O)N[C@@H](C)C(=O)N[C@@H](CCCCN)C(=O)N[C@@H](CCO)C(=O)O)[C@@H](C)CC)[C@@H](C)O)C(C)C)C(C)C)C(C)C)[C@@H](C)CC [CA-HS-COOH] (H-KWKLFKKIEKVGQNIRDGIIKAGPAVAVVGQATQIAK[hSer]-OH) | 0.79 | 0.76 | 0.86 | 0 | 0 | 0.5 | 0.1 ± 0.1 | 1.07 |  |  |  |  |  | 
3 | KWKLFKKIEKVGQNIRDGIIKAGPAVAVVGQATQIAK [CA-COOH] | 0.84 | 0.70 | 0.84 | 0 | 0 | 0.2 | 0 | 1.09 |  |  |  |  |  | 
4 | KWKLFKKIEKVGQNIRDGIIKAGPAVAVVGQATQIAK-NH2 [CA-NH2, cecropin A, reference compound] | 0.92 | 0.70 | 0.80 | 0.1 ± 0.05 | 0 | 0.7 | 1.2 ± 0.2 | 1.06 | < 0.5 millimeters | highly sensitive | < 0.5 millimeters | 5.1 millimeters | 6.1 millimeters | 6.1 millimeters
5 | cecropin B (KWKVFKKIEKMGRNIRNGIVKAGPAIAVLGEAKAL; ends and bridges not checked; UniProt P01508 27-61, looked up) [major natural antibacterial peptide purified from immune hemolymph] |  |  |  |  |  |  |  |  |  | highly sensitive |  |  |  | 
6 | cecropin D |  |  |  |  |  |  |  |  |  | relatively resistant |  |  |  | 
